Measured values taken from patent publication US6747027B1, “Thiol sulfonamide metalloprotease inhibitors” (Pharmacia Corporation, priority 1996, dated 2004).
Where a name gives a salt, the structure may show the parent alone.

What was measured:
[1] = target: T1, recombinant human MMP-13 (Homo sapiens, UniProt P45452); test: In vitro metalloprotease inhibition, fluorogenic peptide assay (MMP-13); assay type: biochemical; settings: recombinant human MMP-13, APMA activated; fluorogenic MCA peptide substrate 4 uM; pH 7.5, room temperature
T1 construct: made in house
Procedure: (§1) Certain of the compounds prepared in the manner described in Examples 1 to 223 were tested for activity by an in vitro assay. Following the procedures of Knight et al., FEBS Lett. 296(3):263 (1992). Briefly, 4-aminophenylmercuric acetate (APMA) or trypsin activated MMPs were incubated with various concentrations of the inhibitor compound at room temperature for 5 minutes (0.02% 2-mercapto-ethanol added to buffer for thiol compounds with 5 minutes or overnight incubation). More specifically, recombinant human MMP-13 and MMP-1 enzymes were prepared in laboratories of the inventors' employer. MMP-13 was expressed in baculovirus as a proenzyme, and purified first over a heparin agarose column and then over a chelating zinc chloride column. The proenzyme was activated by APMA for use in the assay. MMP-1 expressed in transfected HT-1080 was provided by Dr. Howard Welgus of Washington University, St. Louis, Mo. The enzyme was also activated using APMA and was then purified over a hydroxamic acid column.
(§2) The enzyme substrate is a methoxycoumarin-containing polypeptide having the following sequence:
(§3) MCA-ProLeuGlyLeuDpaAlaArgNH^2, wherein MCA is methoxycoumarin and Dpa is 3-(2,4-dinitrophenyl)-L-2,3-diaminopropionyl alanine. This substrate is commercially available from Baychem as product M-1895.
(§4) The buffer used for assays contained 100 mM Tris-HCl, 100 mM NaCl, 10 mM CaCl2 and 0.05 percent polyethyleneglycol(23) lauryl ether at a pH value of 7.5. Assays were carried out at room temperature, and dimethyl sulfoxide (DMSO) at a final concentration of 1 percent was used to dissolve inhibitor compound.
(§5) The assayed inhibitor compound in DMSO/buffer solution was compared to an equal amount of DMSO/buffer with no inhibitor as control using microfluor™ white plates (Dynatech). The inhibitor or control solution was maintained in the plate for 10 minutes and the substrate was added to provide a final concentration of 4 uM.
(§6) In the absence of inhibitor activity, a fluorogenic peptide is cleaved at the gly-leu peptide bond, separating the highly fluorogenic peptide from a 2.4-dinitrophenyl quencher, resulting in an increase of fluorescence intensity (excitation at 328 nm/emmision at 415 nm). Inhibition was measured as a reduction in fluorescent intensity as a function of inhibitor concentration, using a Perkin Elmer L550 plate reader. The IC50 values were calculated from those values. The results are set forth in the Inhibition Table below, reported in terms of IC50 to three significant figures.

[2] = target: T2, recombinant human MMP-1 (Homo sapiens, UniProt P03956); test: In vitro metalloprotease inhibition, fluorogenic peptide assay (MMP-1); assay type: biochemical; settings: recombinant human MMP-1, APMA activated; fluorogenic MCA peptide substrate 4 uM; pH 7.5, room temperature
T2 construct: made in house; host or cells: transfected HT-1080 cells (provided by Dr. Howard Welgus, Washington University)
T2 sequence (P03956 100-469): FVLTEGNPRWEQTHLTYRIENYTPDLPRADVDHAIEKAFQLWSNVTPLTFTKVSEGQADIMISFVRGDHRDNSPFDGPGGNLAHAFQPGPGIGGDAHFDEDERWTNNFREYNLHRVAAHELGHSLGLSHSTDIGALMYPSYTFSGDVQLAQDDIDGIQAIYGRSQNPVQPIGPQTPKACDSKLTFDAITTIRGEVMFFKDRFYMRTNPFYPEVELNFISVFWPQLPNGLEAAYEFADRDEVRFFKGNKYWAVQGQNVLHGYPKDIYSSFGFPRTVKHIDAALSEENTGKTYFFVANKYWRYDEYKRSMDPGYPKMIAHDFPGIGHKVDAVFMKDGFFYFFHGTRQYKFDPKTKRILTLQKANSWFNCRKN
Procedure: as §1, §2, §3, §4, §5, §6

| SMILES | IC50 [1] [nM] | IC50 [2] [nM] |
| --- | --- | --- |
| C[C@H](CS)NS(=O)(=O)c1ccc(OC(F)(F)F)cc1 [Example 75, N-(2-mercapto-1R-methylethyl)-4-(trifluoromethoxy)-benzenesulfonamide] | 1000 | 5000 |
| C[C@H](CS)NS(=O)(=O)c1ccc(C#N)cc1 [Example 76, N-(2-mercapto-1R-methylethyl)-4-cyanobenzenesulfonamide] | 8800 | 3500 |
| C[C@H](CS)NS(=O)(=O)c1ccccc1 [Example 82, N-(2-mercapto-1R-methylethyl)-benzenesulfonamide] | 1200 | > 10000 |
| CC(=O)Nc1ccc(S(=O)(=O)N[C@H](C)CS)cc1 [Example 84, N-(2-mercapto-1R-methylethyl)-4-N-acetylsulfanilamide] | > 10000 | > 10000 |
| C[C@H](CS)NS(=O)(=O)c1ccc(N=Nc2ccccc2)cc1 [Example 89, N-(2-mercapto-1R-methylethyl)-4-phenylazobenzenesulfonamide] | 90 | > 10000 |
| C[C@H](CS)N(CCN1CCCCC1)S(=O)(=O)c1ccc(Sc2ccccc2)cc1 [Example 92D, N-(2-Mercapto-1R-methylethyl)-N-[2-(1-piperidino)ethyl]-4-(thiophenyl)benzenesulfonamide Hydrochloride] | 0.7 | 6000 |
| NC(=O)[C@H](CS)NS(=O)(=O)c1ccc(I)cc1 [Example 95, N-(4-Iodophenyl)sulfonyl-L-cysteine-NH2] | 20 | 800 |
| CCCCCc1ccc(S(=O)(=O)N[C@@H](CS)C(N)=O)cc1 [Example 96, N-[4-(n-Pentyl)-phenyl]sulfonyl-L-cysteine-NH2] | 17 | > 10000 |
| CCCCN([C@H](C)CS)S(=O)(=O)c1ccc(OC)cc1 [Example 99] | 31.3 | 900 |
| COc1ccc(S(=O)(=O)N[C@H](C)CS)cc1OC [Example 100] | > 10000 | > 10000 |
| C[C@H](CS)NS(=O)(=O)c1ccc(Sc2ccccc2)cc1 [Example 101] | 30 | > 10000 |
| C[C@H](CS)N(CC(=O)O)S(=O)(=O)c1ccc(Sc2ccccc2)cc1 [Example 103] | 17 | > 10000 |
| CCCCOc1ccc(S(=O)(=O)N(CCN2CCOCC2)[C@H](C)CS)cc1 [Example 107] | 2.7 | 4000 |
| CCCCOc1ccc(S(=O)(=O)NC(CO)CS)cc1 (stereo not shown) [Example 110] | 1600 | > 10000 |
| COc1ccc(S(=O)(=O)N(Cc2ncc[nH]2)[C@H](C)CS)cc1 [Example 111] | 40 | 2000 |
| COc1ccc(S(=O)(=O)N(Cc2ccsc2)[C@H](C)CS)cc1 [Example 112] | 150 | 4000 |
| C[C@H](CS)N(CCN1CCOCC1)S(=O)(=O)c1ccc(Oc2ccccc2)cc1 [Example 113] | 0.25 | 125 |
| COCCOc1ccc(S(=O)(=O)N(CCN2CCOCC2)[C@H](C)CS)cc1 [Example 114] | 45 | > 10000 |
| CC(=O)SC[C@@H](C)N(CCN1CCOCC1)S(=O)(=O)c1ccc(Oc2ccc(CCC(=O)OC(C)(C)C)cc2)cc1 [Example 115] | 220 | > 10000 |
| C[C@H](CS)N(CCN1CCOCC1)S(=O)(=O)c1ccc(Oc2ccc(CCC(=O)O)cc2)cc1 [Example 117] | 15 | 8000 |
| C[C@H](CS)N(CCN1CCOCC1)S(=O)(=O)c1ccc(Oc2ccc(CCC(=O)O)cc2)cc1 [Example 118] | 14 | 7000 |
| Cc1ccccc1-c1ccc(S(=O)(=O)N(C)[C@H](C)CS)cc1 [Example 122] | 4250 | > 10000 |
| COc1cccc(-c2ccc(S(=O)(=O)N(C)[C@H](C)CS)cc2)c1 [Example 123] | 115 | > 10000 |
| COc1ccc(-c2ccc(S(=O)(=O)N(C)[C@H](C)CS)cc2)cc1 [Example 124] | < 0.5 | 2100 |
| C[C@H](CS)N(C)S(=O)(=O)c1ccc(-c2cccc(C(F)(F)F)c2)cc1 [Example 125] | 770 | > 10000 |

| SMILES | IC50 [1] [nM] | IC50 [2] [nM] |
| --- | --- | --- |
| CC(C)Oc1ccc(-c2ccc(S(=O)(=O)N(CCN3CCOCC3)[C@@H](CS)C(N)=O)cc2)cc1 [Example 126] | 3.5 | > 100 |
| CCCCCc1ccc(S(=O)(=O)N(CCN2CCOCC2)[C@@H](CS)C(N)=O)cc1 [Example 128] | 1.1 | 5000 |
| COc1ccc(S(=O)(=O)N(C)CCc2ccccc2S)cc1 [Example 130] | 3300 | > 10000 |
| COc1ccc(-c2ccc(S(=O)(=O)N(CCN3CCOCC3)[C@@H](CS)C(N)=O)cc2)cc1 [Example 131] | < 0.1 | 70 |
| C[C@H](CSC(=O)c1cccs1)N(CCN1CCOCC1)S(=O)(=O)c1ccc(Sc2ccccc2)cc1 [Example 132] | 47 | > 10000 |
| C[C@H](CSC(=O)C(C)(C)C)N(CCN1CCOCC1)S(=O)(=O)c1ccc(Sc2ccccc2)cc1 [Example 133] | 4200 | > 10000 |
| C[C@H](CS)NS(=O)(=O)c1ccc(S(C)(=O)=O)cc1 [Example 147] | > 10000 | < 10000 |
| C[C@H](CS)NS(=O)(=O)c1ccc(Cc2ncc(C(F)(F)F)cc2Cl)s1 [Example 155] | > 10000 | > 10000 |
| C[C@H](CS)N(C)S(=O)(=O)c1ccc(-c2ccccn2)s1 [Example 156] | 7.3 | 1070 |
| CCCCOc1ccc(S(=O)(=O)N[C@@H](CS)C(=O)NC(C)C)cc1 [Example 166] | 880 | > 10000 |
| CCCCOc1ccc(S(=O)(=O)N[C@@H](CS)C(=O)NC)cc1 [Example 171] | 30 | > 10000 |
| CCCCOc1ccc(S(=O)(=O)N[C@@H](CS)C(=O)NCCN2CCOCC2)cc1 [Example 172] | 250 | > 10000 |
| CCCCOc1ccc(S(=O)(=O)N(Cc2ccncc2)[C@@H](CS)C(N)=O)cc1 [Example 175] | 0.7 | 400 |
| CCCCOc1ccc(S(=O)(=O)N(CCN2CCOCC2)[C@@H](CS)C(=O)NC)cc1 [Example 176] | 2.5 | 2900 |
| CCCCOc1ccc(S(=O)(=O)N[C@@H](CS)C(=O)N(C)C)cc1 [Example 178] | 300 | > 10000 |
| CCCCOc1ccc(S(=O)(=O)N[C@@H](CS)C(=O)NCC(=O)O)cc1 [Example 179] | 23.5 | 2000 |
| CCCCOc1ccc(S(=O)(=O)N[C@@H](CS)C(=O)N[C@@H](Cc2ccccc2)C(=O)NC)cc1 [Example 180] | 700 | > 10000 |
| CCCCOc1ccc(S(=O)(=O)N[C@@H](CS)C(=O)O)cc1 [Example 181] | 3000 | > 10000 |
| CCCCOc1ccc(S(=O)(=O)N[C@@H](CS)C(=O)N[C@@H](Cc2ccccc2)C(N)=O)cc1 [Example 186] | 1100 | > 10000 |
| C[C@H](CS)NS(=O)(=O)c1ccc([N+](=O)[O-])cc1 [Example 192] | > 10000 | > 10000 |
| CCC(C)(C)c1ccc(S(=O)(=O)N[C@H](C)CS)cc1 [Example 193] | > 10000 | > 10000 |
| CC(=O)Nc1ccc(S(=O)(=O)N[C@@H](CS)C(N)=O)cc1 [Example 199] | 350 | > 10000 |
| CCCCOc1ccc(S(=O)(=O)N[C@@H](CS)C(N)=O)cc1 [Example 201] | 3.3 | 7000 |
| CC(=O)Nc1ccc(S(=O)(=O)N(C)[C@@H](CS)C(N)=O)cc1 [Example 203] | 170 | > 10000 |
| CCCCOc1ccc(S(=O)(=O)N(CCC(C)C)[C@@H](CS)C(N)=O)cc1 [Example 208] | 190 | > 10000 |
